Results from patent publication US20200216439A1, “HETERO-1,5,6,7-TETRAHYDRO-4H-INDOL-4-ONES” (BAYER PHARMA AKTIENGESELLSCHAFT, priority 2015, published 2020).

Target: T1, catalytic domain of human Bub1 (amino acids 704-1085) (Homo sapiens, UniProt O43683)
T1 construct: catalytic domain of human Bub1 (amino acids 704-1085); His6 (N); made in house; host or cells: Hi5 insect cells
Experiment: Bub1 kinase assay (TR-FRET)
Type: biochemical
Conditions: TR-FRET; ATP 10 μM, peptide substrate 1 μM; 60 min at 22° C.; average or median if tested more than once; read-out: Inhibition of Bub1 kinase IC50
Description: Bub1-inhibitory activities of compounds described in the present invention were quantified using a time-resolved fluorescence energy transfer (TR-FRET) kinase assay which measures phosphorylation of the synthetic peptide Biotin-Ahx-VLLPKKSFAEPG (C-terminus in amide form), purchased from e.g. Biosyntan (Berlin, Germany) by the (recombinant) catalytic domain of human Bub1 (amino acids 704-1085), expressed in Hi5 insect cells with an N-terminal His6-tag and purified by affinity—(Ni-NTA) and size exclusion chromatography.
In a typical assay 11 different concentrations of each compound (0.1 nM, 0.33 nM, 1.1 nM, 3.8 nM, 13 nM, 44 nM, 0.15 μM, 0.51 μM, 1.7 μM, 5.9 μM and 20 μM) were tested in duplicate within the same microtiter plate. To this end, 100-fold concentrated compound solutions (in DMSO) were previously prepared by serial dilution (1:3.4) of 2 mM stocks in a clear low volume 384-well source microtiter plate (Greiner Bio-One, Frickenhausen, Germany), from which 50 nl of compounds were transferred into a black low volume test microtiter plate from the same supplier. Subsequently, 2 μL of Bub1 (the final concentration of Bub1 was adjusted depending on the activity of the enzyme lot in order to be within the linear dynamic range of the assay: typically ˜200 ng/mL were used) in aqueous assay buffer [50 mM Tris/HCl pH 7.5, 10 mM magnesium chloride (MgCl2), 200 mM potassium chloride (KCl), 1.0 mM dithiothreitol (DTT), 0.1 mM sodium ortho-vanadate, 1% (v/v) glycerol, 0.01% (w/v) bovine serum albumine (BSA), 0.005% (v/v) Trition X-100 (Sigma), 1× Complete EDTA-free protease inhibitor mixture (Roche)] were added to the compounds in the test plate and the mixture was incubated for 15 min at 22° C. to allow pre-equilibration of the putative enzyme-inhibitor complexes before the start of the kinase reaction, which was initiated by the addition of 3 μL 1.67-fold concentrated solution (in assay buffer) of adenosine-tri-phosphate (ATP, 10 μM final concentration) and peptide substrate (1 μM final concentration). The resulting mixture (5 μL final volume) was incubated at 22° C. during 60 min., and the reaction was stopped by the addition of 5 μL of an aqueous EDTA-solution (50 mM EDTA, in 100 mM HEPES pH 7.5 and 0.2% (w/v) bovine serum albumin) which also contained the TR-FRET detection reagents (0.2 μM streptavidin-XL665 [Cisbio Bioassays, Codolet, France] and 1 nM anti-phospho-Serine antibody [Merck Millipore, cat. #35-002] and 0.4 nM LANCE EU-W1024 labeled anti-mouse IgG antibody [Perkin-Elmer, product no. AD0077, alternatively a Terbium-cryptate-labeled anti-mouse IgG antibody from Cisbio Bioassays can be used]). The stopped reaction mixture was further incubated 1 h at 22° C. in order to allow the formation of complexes between peptides and detection reagents. Subsequently, the amount of product was evaluated by measurement of the resonance energy transfer from the Eu-chelate-antibody complex recognizing the Phosphoserine residue to the streptavidin-XL665 bound to the biotin moiety of the peptide. To this end, the fluorescence emissions at 620 nm and 665 nm after excitation at 330-350 nm were measured in a TR-FRET plate reader, e.g. a Rubystar or Pherastar (both from BMG Labtechnologies, Offenburg, Germany) or a Viewlux (Perkin-Elmer) and the ratio of the emissions (665 nm/[…]) was taken as indicator for the amount of phosphorylated substrate. The data were normalised using two sets of control wells for high—(=enzyme reaction without inhibitor=0%=Minimum inhibition) and low—(=all assay components without enzyme=100%=Maximum inhibition) Bub1 activity. IC50 values were calculated by fitting the normalized inhibition data to a 4-parameter logistic equation (Minimum, Maximum, IC50, Hill; Y=Max+(Min−Max)/(1+(X/IC50)Hill)).

T1 sequence (O43683 704-1085): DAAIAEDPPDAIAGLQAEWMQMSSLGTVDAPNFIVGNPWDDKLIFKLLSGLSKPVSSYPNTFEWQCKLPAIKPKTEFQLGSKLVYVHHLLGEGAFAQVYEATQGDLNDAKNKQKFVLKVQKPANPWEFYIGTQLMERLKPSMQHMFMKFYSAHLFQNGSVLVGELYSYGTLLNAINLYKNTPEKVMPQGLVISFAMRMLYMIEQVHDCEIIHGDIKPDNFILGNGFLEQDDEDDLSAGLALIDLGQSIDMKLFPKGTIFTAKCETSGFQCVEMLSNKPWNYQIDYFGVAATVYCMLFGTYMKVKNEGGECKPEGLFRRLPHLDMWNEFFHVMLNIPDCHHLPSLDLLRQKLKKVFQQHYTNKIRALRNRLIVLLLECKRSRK

SMILES	IC50
CS(=O)(=O)N1CC(=O)c2c([nH]c(-c3ccncc3)c2Nc2ccccc2)C1 [Example 19, 6-(Methylsulfonyl)-3-(phenylamino)-2-(pyridin-4-yl)-1,5,6,7-tetrahydro-4H-pyrrolo[2,3-c]pyridin-4-one]	8 nM
O=C1C[S+]([O-])Cc2[nH]c(-c3ccncc3)c(Nc3ccccc3)c21 (stereo not shown) [Example 20, 3-(phenylamino)-2-(pyridin-4-yl)-1,7-dihydrothiopyrano[3,4-b]pyrrol-4(5H)-one 6-oxide]	152 nM
Nc1cc(-c2[nH]c3c(c2Nc2ccccc2)C(=O)COC3)ccn1 [Example 22, 2-(2-Aminopyridin-4-yl)-3-(phenylamino)-1,7-dihydropyrano[3,4-b]pyrrol-4(5H)-one]	503 nM
CC(=O)Nc1cc(-c2[nH]c3c(c2Nc2ccccc2)C(=O)CN(C(=O)OC(C)(C)C)C3)ccn1 [Example 23, tert-Butyl 2-[2-(acetylamino)pyridin-4-yl]4-oxo-3-(phenylamino)-1,4,5,7-tetrahydro-6H-pyrrolo[2,3-c]pyridine-6-carboxylate]	1660 nM
CC(=O)Nc1cc(-c2[nH]c3c(c2Nc2ccccc2)C(=O)CNC3)ccn1 [Example 24, N-{4-[4-Oxo-3-(phenylamino)-4,5,6,7-tetrahydro-1H-pyrrolo[2,3-c]pyridin-2-yl]pyridin-2-yl}acetamide]	154 nM
CC(=O)N1CC(=O)c2c([nH]c(-c3ccnc(C)n3)c2Nc2ccccc2)C1 [Example 26, 6-Acetyl-2-(2-methylpyrimidin-4-yl)-3-(phenylamino)-1,5,6,7-tetrahydro-4H-pyrrolo[2,3-c]pyridin-4-one]	97 nM
COC(=O)N1CC(=O)c2c([nH]c(-c3ccnc(C)n3)c2Nc2ccccc2)C1 [Example 27, Methyl 2-(2-methylpyrimidin-4-yl)-4-oxo-3-(phenylamino)-1,4,5,7-tetrahydro-6H-pyrrolo[2,3-c]pyridine-6-carboxylate]	59 nM
Cc1nccc(-c2[nH]c3c(c2Nc2ccccc2)C(=O)CN(S(C)(=O)=O)C3)n1 [Example 29, 2-(2-Methylpyrimidin-4-yl)-6-(methylsulfonyl)-3-(phenylamino)-1,5,6,7-tetrahydro-4H-pyrrolo[2,3-c]pyridin-4-one]	24 nM
CC(=O)Nc1cc(-c2[nH]c3c(c2Nc2ccccc2)C(=O)COC3)ccn1 [Example 34, N-{4-[4-Oxo-3-(phenylamino)-1,4,5,7-tetrahydropyrano[3,4-b]pyrrol-2-yl]pyridin-2-yl}acetamide]	60 nM
O=C(CC(F)(F)F)Nc1cc(-c2[nH]c3c(c2Nc2ccccc2)C(=O)COC3)ccn1 [Example 36, 3,3,3-Trifluoro-N-{4-[4-oxo-3-(phenylamino)-1,4,5,7-tetrahydropyrano[3,4-b]pyrrol-2-yl]pyridin-2-yl}propanamide]	79 nM
Cc1cnccc1-c1[nH]c2c(c1Nc1ccccc1)C(=O)CSC2 [Example 37, 2-(3-Methylpyridin-4-yl)-3-(phenylamino)-1,7-dihydrothiopyrano[3,4-b]pyrrol-4(5H)-one]	482 nM
COc1cnccc1-c1[nH]c2c(c1Nc1ccccc1)C(=O)CSC2 [Example 39, 2-(3-Methoxypyridin-4-yl)-3-(phenylamino)-1,7-dihydrothiopyrano[3,4-b]pyrrol-4(5H)-one]	81 nM
O=C1COCc2[nH]c(-c3ccncc3Br)c(Nc3ccccc3)c21 [Example 41, 2-(3-Bromopyridin-4-yl)-3-(phenylamino)-1,7-dihydropyrano[3,4-b]pyrrol-4(5H)-one]	233 nM
COc1cnccc1-c1[nH]c2c(c1Nc1ccccc1)C(=O)COC2 [Example 43, 2-(3-Methoxypyridin-4-yl)-3-(phenylamino)-1,7-dihydropyrano[3,4-b]pyrrol-4(5H)-one]	84 nM
CCC(=O)Nc1cc(-c2[nH]c3c(c2Nc2ccccc2)C(=O)COC3)ccn1 [Example 44, N-{4-[4-Oxo-3-(phenylamino)-1,4,5,7-tetrahydropyrano[3,4-b]pyrrol-2-yl]pyridin-2-yl}propanamide]	50 nM
CSCC(=O)Nc1cc(-c2[nH]c3c(c2Nc2ccccc2)C(=O)COC3)ccn1 [Example 46, 2-(Methylsulfanyl)-N-{4-[4-oxo-3-(phenylamino)-1,4,5,7-tetrahydropyrano[3,4-b]pyrrol-2-yl]pyridin-2-yl}acetamide]	93 nM

More lines, now with the values ahead:

IC50	SMILES
794 nM	Nc1cc(-c2[nH]c3c(c2Nc2ccccc2)C(=O)CNC3)ccn1 [Example 21, 2-(2-Aminopyridin-4-yl)-3-(phenylamino)-1,5,6,7-tetrahydro-4H-pyrrolo[2,3-c]pyridin-4-one]
254 nM	CCNC(=O)N1CC(=O)c2c([nH]c(-c3ccnc(C)n3)c2Nc2ccccc2)C1 [Example 25, N-Ethyl-2-(2-methylpyrimidin-4-yl)-4-oxo-3-(phenylamino)-1,4,5,7-tetrahydro-6H-pyrrolo[2,3-c]pyridine-6-carboxamide]
13 nM	CCNC(=O)N1CC(=O)c2c([nH]c(-c3ccnc(NC(C)=O)c3)c2Nc2ccccc2)C1 [Example 28]
7 nM	CC(=O)Nc1cc(-c2[nH]c3c(c2Nc2ccccc2)C(=O)CN(C(=O)C2CC2)C3)ccn1 [Example 30, N-{4-[6-(Cyclopropylcarbonyl)-4-oxo-3-(phenylamino)-4,5,6,7-tetrahydro-1H-pyrrolo[2,3-c]pyridin-2-yl]pyridin-2-yl}acetamide]
7 nM	COC(=O)N1CC(=O)c2c([nH]c(-c3ccnc(NC(C)=O)c3)c2Nc2ccccc2)C1 [Example 31, Methyl 2-[2-(acetylamino)pyridin-4-yl]-4-oxo-3-(phenylamino)-1,4,5,7-tetrahydro-6H-pyrrolo[2,3-c]pyridine-6-carboxylate]
4 nM	CC(=O)Nc1cc(-c2[nH]c3c(c2Nc2ccccc2)C(=O)CN(S(C)(=O)=O)C3)ccn1 [Example 32, N-{4-[6-(Methylsulfonyl)-4-oxo-3-(phenylamino)-4,5,6,7-tetrahydro-1H-pyrrolo[2,3-c]pyridin-2-yl]pyridin-2-yl}acetamide]
17 nM	O=C1COCc2[nH]c(-c3ccncc3F)c(Nc3ccccc3)c21 [Example 33, 2-(3-Fluoropyridin-4-yl)-3-(phenylamino)-1,7-dihydropyrano[3,4-b]pyrrol-4(5H)-one]
55 nM	O=C1COCc2[nH]c(-c3ccnc(NC(=O)C4CC4)c3)c(Nc3ccccc3)c21 [Example 35, N-{4-[4-Oxo-3-(phenylamino)-1,4,5,7-tetrahydropyrano[3,4-b]pyrrol-2-yl]pyridin-2-yl}cyclopropanecarboxamide]
40 nM	O=C1CSCc2[nH]c(-c3ccncc3Cl)c(Nc3ccccc3)c21 [Example 38, 2-(3-Chloropyridin-4-yl)-3-(phenylamino)-1,7-dihydrothiopyrano[3,4-b]pyrrol-4(5H)-one]
1470 nM	Cc1cnccc1-c1[nH]c2c(c1Nc1ccccc1)C(=O)COC2 [Example 40, 2-(3-Methylpyridin-4-yl)-3-(phenylamino)-1,7-dihydropyrano[3,4-b]pyrrol-4(5H)-one]
77 nM	O=C1COCc2[nH]c(-c3ccncc3Cl)c(Nc3ccccc3)c21 [Example 42, 2-(3-Chloropyridin-4-yl)-3-(phenylamino)-1,7-dihydropyrano[3,4-b]pyrrol-4(5H)-one]
59 nM	COCC(=O)Nc1cc(-c2[nH]c3c(c2Nc2ccccc2)C(=O)COC3)ccn1 [Example 45, 2-Methoxy-N-{4-[4-oxo-3-(phenylamino)-1,4,5,7-tetrahydropyrano[3,4-b]pyrrol-2-yl]pyridin-2-yl}acetamide]
